Experimental data from the NIST ThermoML archive (doi:10.1021/acs.jced.5b00980).
Numbers after ± are expanded uncertainties.

assay: activity coefficient (dimensionless); of the first substance listed, at infinite dilution; xn = mol fraction of the nth substance listed; settings: 338.15 K; 100 kPa; Liquid; Chromatography; x1 = 0

First: C#CCCC [1-pentyne] + CCCC[P+](CC)(CCCC)CCCC.CCOP(=O)([O-])OCC
Second: C=CCCCC [hex-1-ene] + CCCC[P+](CC)(CCCC)CCCC.CCOP(=O)([O-])OCC
The activity coefficient of the first is lower: 0.762 ± 0.05 for the first, 2.54 ± 0.17 for the second.

Compared with `CC(C)CC(C)(C)C` [2,2,4-trimethylpentane] + CCCC[P+](CC)(CCCC)CCCC.CCOP(=O)([O-])OCC, `CCC(C)(C)C` [2,2-dimethylbutane] + CCCC[P+](CC)(CCCC)CCCC.CCOP(=O)([O-])OCC is lower in activity coefficient: 4.25 ± 0.29 for the first, 3.27 ± 0.22 for the second.

Compared with `CCOC(C)(C)C` [2-ethoxy-2-methylpropane] + CCCC[P+](CC)(CCCC)CCCC.CCOP(=O)([O-])OCC, `COC(C)(C)C` [2-methoxy-2-methylpropane] + CCCC[P+](CC)(CCCC)CCCC.CCOP(=O)([O-])OCC is lower in activity coefficient: 2.6 ± 0.18 for the first, 1.86 ± 0.13 for the second.

`CCCCC(C)=O` [2-hexanone] + CCCC[P+](CC)(CCCC)CCCC.CCOP(=O)([O-])OCC and `CCCC(=O)CC` [3-hexanone] + CCCC[P+](CC)(CCCC)CCCC.CCOP(=O)([O-])OCC are within error of each other in activity coefficient: 1.15 ± 0.07 for the first, 1.21 ± 0.08 for the second.

First: CCC(C)(C)OC [2-methoxy-2-methylbutane] + CCCC[P+](CC)(CCCC)CCCC.CCOP(=O)([O-])OCC
Second: CCOCC [diethyl ether] + CCCC[P+](CC)(CCCC)CCCC.CCOP(=O)([O-])OCC
The activity coefficient of the first is higher: 2.07 ± 0.14 for the first, 1.77 ± 0.12 for the second.

`CCC(C)CC` [3-methylpentane] + CCCC[P+](CC)(CCCC)CCCC.CCOP(=O)([O-])OCC and `CCCCCC` [hexane] + CCCC[P+](CC)(CCCC)CCCC.CCOP(=O)([O-])OCC are within error of each other in activity coefficient: 3.12 ± 0.21 for the first, 3.33 ± 0.23 for the second.

Compared with `CC(C)=O` [acetone] + CCCC[P+](CC)(CCCC)CCCC.CCOP(=O)([O-])OCC, `CO` [methanol] + CCCC[P+](CC)(CCCC)CCCC.CCOP(=O)([O-])OCC is lower in activity coefficient: 0.827 ± 0.053 for the first, 0.022 for the second.

Compared with `CC#N` [acetonitrile] + CCCC[P+](CC)(CCCC)CCCC.CCOP(=O)([O-])OCC, `CCO` [ethanol] + CCCC[P+](CC)(CCCC)CCCC.CCOP(=O)([O-])OCC is lower in activity coefficient: 0.465 ± 0.036 for the first, 0.035 for the second.

Going from `c1ccccc1` [benzene] + CCCC[P+](CC)(CCCC)CCCC.CCOP(=O)([O-])OCC to `CCc1ccccc1` [ethylbenzene] + CCCC[P+](CC)(CCCC)CCCC.CCOP(=O)([O-])OCC, the activity coefficient rises from 0.863 ± 0.055 to 1.52 ± 0.1.

`C1CCCCCC1` [cycloheptane] + CCCC[P+](CC)(CCCC)CCCC.CCOP(=O)([O-])OCC and `C1CCCCCCC1` [cyclooctane] + CCCC[P+](CC)(CCCC)CCCC.CCOP(=O)([O-])OCC are within error of each other in activity coefficient: 2.42 ± 0.16 for the first, 2.74 ± 0.19 for the second.

Going from `C1CCCCC1` [cyclohexane] + CCCC[P+](CC)(CCCC)CCCC.CCOP(=O)([O-])OCC to `C1CCCC1` [cyclopentane] + CCCC[P+](CC)(CCCC)CCCC.CCOP(=O)([O-])OCC, the activity coefficient falls from 2.13 ± 0.14 to 1.8 ± 0.12.

Compared with `C1=CCCCC1` [cyclohexene] + CCCC[P+](CC)(CCCC)CCCC.CCOP(=O)([O-])OCC, `CC1CCCCC1` [methylcyclohexane] + CCCC[P+](CC)(CCCC)CCCC.CCOP(=O)([O-])OCC is higher in activity coefficient: 1.69 ± 0.11 for the first, 2.57 ± 0.17 for the second.

Compared with `CCCCCCCCCC` [decane] + CCCC[P+](CC)(CCCC)CCCC.CCOP(=O)([O-])OCC, `CCCCCCC` [heptane] + CCCC[P+](CC)(CCCC)CCCC.CCOP(=O)([O-])OCC is lower in activity coefficient: 6.74 ± 0.46 for the first, 3.97 ± 0.27 for the second.

`CC(C)OC(C)C` [diisopropyl ether] + CCCC[P+](CC)(CCCC)CCCC.CCOP(=O)([O-])OCC and `CCCOCCC` [dipropyl ether] + CCCC[P+](CC)(CCCC)CCCC.CCOP(=O)([O-])OCC are within error of each other in activity coefficient: 2.75 ± 0.19 for the first, 2.55 ± 0.17 for the second.

same assay, conditions: 348.15 K; 100 kPa; Liquid; Chromatography; x1 = 0

`Cc1ccccc1C` [1,2-dimethylbenzene] + CCCC[P+](CC)(CCCC)CCCC.CCOP(=O)([O-])OCC and `Cc1cccc(C)c1` [1,3-dimethylbenzene] + CCCC[P+](CC)(CCCC)CCCC.CCOP(=O)([O-])OCC are within error of each other in activity coefficient: 1.5 ± 0.1 for the first, 1.64 ± 0.11 for the second.

Compared with `Cc1ccc(C)cc1` [1,4-dimethylbenzene] + CCCC[P+](CC)(CCCC)CCCC.CCOP(=O)([O-])OCC, `CCC(C)(C)C` [2,2-dimethylbutane] + CCCC[P+](CC)(CCCC)CCCC.CCOP(=O)([O-])OCC is higher in activity coefficient: 1.59 ± 0.11 for the first, 3.2 ± 0.22 for the second.

First: C1COCCO1 [1,4-dioxane] + CCCC[P+](CC)(CCCC)CCCC.CCOP(=O)([O-])OCC
Second: C=CCCCCCCCC [1-decene] + CCCC[P+](CC)(CCCC)CCCC.CCOP(=O)([O-])OCC
The activity coefficient of the first is lower: 1.05 ± 0.07 for the first, 4.93 ± 0.34 for the second.

Compared with `C=CCCCCC` [1-heptene] + CCCC[P+](CC)(CCCC)CCCC.CCOP(=O)([O-])OCC, `C=CCCC` [1-pentene] + CCCC[P+](CC)(CCCC)CCCC.CCOP(=O)([O-])OCC is lower in activity coefficient: 2.97 ± 0.2 for the first, 2.13 ± 0.14 for the second.

First: C#CCCCCC [1-heptyne] + CCCC[P+](CC)(CCCC)CCCC.CCOP(=O)([O-])OCC
Second: C#CCCCCCC [1-octyne] + CCCC[P+](CC)(CCCC)CCCC.CCOP(=O)([O-])OCC
The activity coefficient of the first is lower: 1.09 ± 0.07 for the first, 1.28 ± 0.08 for the second.

Going from `C#CCCCC` [1-hexyne] + CCCC[P+](CC)(CCCC)CCCC.CCOP(=O)([O-])OCC to `C#CCCC` [1-pentyne] + CCCC[P+](CC)(CCCC)CCCC.CCOP(=O)([O-])OCC, the activity coefficient falls from 0.936 ± 0.059 to 0.797 ± 0.052.

First: CCC[N+](=O)[O-] [1-nitropropane] + CCCC[P+](CC)(CCCC)CCCC.CCOP(=O)([O-])OCC
Second: CCCCC(C)=O [2-hexanone] + CCCC[P+](CC)(CCCC)CCCC.CCOP(=O)([O-])OCC
The activity coefficient of the first is lower: 0.515 ± 0.038 for the first, 1.15 ± 0.07 for the second.

Compared with `CC(C)CC(C)(C)C` [2,2,4-trimethylpentane] + CCCC[P+](CC)(CCCC)CCCC.CCOP(=O)([O-])OCC, `CCOC(C)(C)C` [2-ethoxy-2-methylpropane] + CCCC[P+](CC)(CCCC)CCCC.CCOP(=O)([O-])OCC is lower in activity coefficient: 4.15 ± 0.28 for the first, 2.56 ± 0.17 for the second.

`CCC(C)(C)OC` [2-methoxy-2-methylbutane] + CCCC[P+](CC)(CCCC)CCCC.CCOP(=O)([O-])OCC and `COC(C)(C)C` [2-methoxy-2-methylpropane] + CCCC[P+](CC)(CCCC)CCCC.CCOP(=O)([O-])OCC are within error of each other in activity coefficient: 2.05 ± 0.14 for the first, 1.84 ± 0.12 for the second.

Going from `CCCC(=O)CC` [3-hexanone] + CCCC[P+](CC)(CCCC)CCCC.CCOP(=O)([O-])OCC to `CCC(C)CC` [3-methylpentane] + CCCC[P+](CC)(CCCC)CCCC.CCOP(=O)([O-])OCC, the activity coefficient rises from 1.21 ± 0.08 to 3.07 ± 0.21.
